Results taken from patent US9328104B2, “Selective androgen receptor modulators” (Pfizer Inc., priority 2012, dated 2016).

target: T1, full length human Androgen Receptor (AR) (Homo sapiens, UniProt P10275); assay: Androgen Receptor-Mediated Transcriptional Assay (ARE-luciferase reporter in transiently transfected CV-1 cells); type: cell-based; details: not given
T1 construct: transiently transfected in T225 cm^2 flasks with a full length human Androgen Receptor (AR) cDNA; expressed in transfected cells; host or cells: CV-1 cells (ATCC CCL-70), transiently transfected with AR cDNA in pcDNA3 and ARE-luciferase in pGL3
T1 sequence (P10275 1-920): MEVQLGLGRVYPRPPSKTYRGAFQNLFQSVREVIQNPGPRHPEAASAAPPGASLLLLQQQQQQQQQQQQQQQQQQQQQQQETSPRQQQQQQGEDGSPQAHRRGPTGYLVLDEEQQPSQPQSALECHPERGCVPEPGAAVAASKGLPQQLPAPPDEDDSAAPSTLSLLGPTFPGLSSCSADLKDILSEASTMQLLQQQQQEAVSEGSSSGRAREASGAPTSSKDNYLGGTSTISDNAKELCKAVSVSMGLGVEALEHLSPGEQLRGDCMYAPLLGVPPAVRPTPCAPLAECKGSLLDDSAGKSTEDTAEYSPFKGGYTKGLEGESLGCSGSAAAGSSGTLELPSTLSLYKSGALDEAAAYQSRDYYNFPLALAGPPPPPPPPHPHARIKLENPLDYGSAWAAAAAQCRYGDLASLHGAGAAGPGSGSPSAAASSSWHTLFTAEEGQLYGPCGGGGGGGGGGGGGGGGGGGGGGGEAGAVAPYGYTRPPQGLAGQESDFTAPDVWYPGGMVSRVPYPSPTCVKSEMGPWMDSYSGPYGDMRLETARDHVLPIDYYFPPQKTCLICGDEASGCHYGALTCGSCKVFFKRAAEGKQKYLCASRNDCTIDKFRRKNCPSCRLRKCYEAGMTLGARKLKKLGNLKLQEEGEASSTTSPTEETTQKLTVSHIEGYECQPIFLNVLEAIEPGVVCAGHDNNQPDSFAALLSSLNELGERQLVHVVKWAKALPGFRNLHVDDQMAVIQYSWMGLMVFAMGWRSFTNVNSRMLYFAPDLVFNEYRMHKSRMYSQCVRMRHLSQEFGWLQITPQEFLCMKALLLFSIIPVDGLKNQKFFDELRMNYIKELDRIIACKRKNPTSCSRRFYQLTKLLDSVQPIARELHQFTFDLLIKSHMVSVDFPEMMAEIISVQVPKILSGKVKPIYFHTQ
Experimental: Androgen Receptor-Mediated Transcriptional Assay Summary
CV-1 cells (American Tissue Culture Collection cat# CCL-70) were expanded in Growth Media and transiently transfected in T225 cm^2 flasks with a full length human Androgen Receptor (AR) cDNA in the pcDNA3 expression vector and a human Androgen Response Element (ARE)-luciferase cDNA in the pGL3 vector (both from Invitrogen). DNA (μg) and Lipofectamine (μl) at a ratio of 1:3 were incubated with the cells in a total volume of 55 mL Basal Media for 4 hours. Cells were harvested by trypsinization and frozen back (−150° C. cryomed) at a concentration of 4.3 million cells/mL.
On the day of the assay, frozen cells were thawed and re-suspended in Re-suspension Media and plated at 40,000 cells/well (in 100 μL volume) in 96 well white plates and were incubated for at least 4 h at 37° C., 5% CO2. After incubation, cells were treated with the compounds to be screened. 10 mM stocks of the compounds were serially diluted 1:10 in 100% DMSO followed by an additional 1:100 dilution in Assay Media. These dilution series were added to the cell plates resulting in a further 1:10 dilution and a final % DMSO of 0.1%. The vehicle control wells also contained this dilution of DMSO and the positive control wells contained […] (DHT) as an AR agonist at final concentration of 0.3 nM in 0.1% DMSO. Cells were incubated for 16-18 hours at 37° C. and 5% CO2. Then the culture media was removed from and the cells were lysed in 20 μL of cell lysis reagent for 5 minutes at room temperature. 50 μL of luciferase reagent was added to each well and luminescence, over 5 seconds, was measured.
EC50 (half maximal effective concentration) was calculated from concentration series plots which generated sigmoidal curves. Xlfit software was used to plot the best fit of the % effect vs concentration and to calculate the EC50.
Reagents and Materials used in the Androgen Receptor-Mediated Transcriptional Assay include the following: • Growth Media—DMEM/high glucose—10% FBS: 500 ml phenol red DMEM/high glucose (Gibco, Grand Island N.Y., cat #10569-010), 10% non heat-inactivated Fetal Bovine Serum (FBS) (Atlanta Biologicals, Norcross Ga., cat #S-12450), 1% Nonessential Amino Acids (Gibco, cat #11140-050), 1% Penicillin-Streptomycin (Gibco, cat #15140-122) • Basal Media—phenol red free DMEM/high glucose (Gibco, cat #31053-028)+1% Na Pyruvate (Gibco, cat #11360-070), 1% Nonessential Amino Acids (Gibco, cat #11140-050), 1% GlutaMAX-I (Gibco, cat #35050-061) • Re-suspension Media—basal media+1% Penicillin-Streptomycin (Gibco, cat #15140-122) • Assay Media—basal media+5% charcoal stripped FBS (HyClone, Logan Utah, Cat #SH30068)+1% Penicillin-Streptomycin (Gibco, cat #15140-122) • Cell Lysis Reagent—Promega, Cat #PAE1531 • Luciferase Reagent—Promega, Cat #PAE1483

Row | Compound | EC50 [nM]
1 | N#Cc1nccc2cc(N3CCCC[C@@H]3[C@H](O)C(F)(F)F)ccc12 (single isomer, unassigned) [Compound 29] | 0.02
2 | N#Cc1nccc2cc(N3CCC[C@@H]3[C@H](O)C(F)(F)F)ccc12 (single isomer, unassigned) [Compound 35] | 7.4
3 | N#Cc1nccc2cc(N3CC4(CC4)CNS3(=O)=O)ccc12 [Compound 14, 6-(6,6-dioxido-6-thia-5,7-diazaspiro[2.5]oct-5-yl)isoquinoline-1-carbonitrile] | 22
4 | C[C@H]([C@@H](O)C(F)(F)F)N(C)c1ccc2c(C#N)nccc2c1 (single isomer, unassigned) [Compound 26] | 0.1
5 | N#Cc1nccc2cc(N3CCCC[C@@H]3[C@@H](O)C(F)(F)F)ccc12 (single isomer, unassigned) [Compound 28] | 61.5
6 | N#Cc1nccc2cc(N3CCC[C@@H]3[C@@H](O)C(F)(F)F)ccc12 (single isomer, unassigned) [Compound 34] | 0.1
7 | C[C@H](O)[C@H]1CC[C@@H](C)N1c1ccc2c(C#N)nccc2c1 (single isomer, unassigned) [Compound 39] | 37.3

same assay, conditions: CV-1 cells transfected with human AR and ARE-luciferase; 16-18 hours incubation; luminescence; read-out: EC50 Values for Compounds 1-22 from Androgen Receptor-Mediated Transcriptional Assay

Row | EC50 [nM] | Compound
8 | 217 | N#Cc1nccc2cc(N3C[C@H](c4ccccc4)CNS3(=O)=O)ccc12 [Compound 12]
9 | 79 | N#Cc1nccc2cc(N3[C@H](CC(F)(F)F)CNS3(=O)=O)ccc12 (single isomer, unassigned) [Compound 3]
10 | 271 | C[C@H]1CCS(=O)(=O)N1c1ccc2c(C#N)nccc2c1 [Compound 8, 6-[(3S)-3-methyl-1,1-dioxido-1,2-thiazolidin-2-yl]isoquinoline-1-carbonitrile]
11 | 195 | Cc1cccc(C[C@@H]2CNS(=O)(=O)N(c3ccc4c(C#N)nccc4c3)C2)c1 (single isomer, unassigned) [Compound 15]
12 | 687 | C[C@H]1CNS(=O)(=O)N(c2ccc3c(C#N)nccc3c2)C1 [Compound 11, 6-[(4S)-4-methyl-1,1-dioxido-1,2,6-thiadiazinan-2-yl]isoquinoline-1-carbonitrile]
13 | 16 | CC1CCN(c2ccc3c(C#N)nccc3c2)S(=O)(=O)N1 (racemic) [Compound 17, 6-(5-methyl-1,1-dioxido-1,2,6-thiadiazinan-2-yl)isoquinoline-1-carbonitrile]

Row | Compound | EC50 [nM]
14 | CCCC1CNS(=O)(=O)N(c2ccc3c(C#N)nccc3c2)C1 (racemic) [Compound 22, 6-(1,1-dioxido-4-propyl-1,2,6-thiadiazinan-2-yl)isoquinoline-1-carbonitrile] | 569
15 | 6-[(4S)-4-(3-methylphenyl)-1,1-dioxido-1,2,6-thiadiazinan-2-yl]isoquinoline-1-carbonitrile [Compound 20] | 8
